Data reported in US9352050B2, “Processes for preparing peptide conjugates and linkers” (PFIZER INC., priority 2011, dated 2016).
One block for each compound: values may come before it.

Tests used:
Format in all cases: physicochemical
[1] = Solubility and dissolution of peptide-linker conjugate and peptide in solvents and buffers
From the text: The process for the formation of the drug substance 5 was originally described in U.S. Pat. No. 8,288,349 whose contents are hereby incorporated. The original process involved use of propylene glycol as the cosolvent in the conjugation process between peptide-linker 3 and the antibody h38C2. […] The more amorphous solid form is usually more soluble in different solvents and buffer solutions. […] During preparation of bioconjugate 5, it is desirable to have a conjugation mixture as a homogeneous solution at the beginning of the reaction in order to afford consistent reaction kinetics and more robust manufacturing process.
In the original process, propylene glycol was used as a cosolvent primarily to assist in the dispersion of the hydrophobic peptide-linker 3b in the aqueous histidine buffer solution at pH 6.5.

[2] = Degradation of peptide 3b in the conjugation mixture; conditions: higher temperatures (30-35° C.) and higher pH (about pH7.5)
Experimental: In order to investigate the impact of different conjugation reaction variables on the reaction rate, product quality and yield, a set of experiments were executed using design of experiments (DOE) approach. Three parameters were chosen for evaluation: pH of the conjugation mixture, temperature of the conjugation and the ratio of peptide to starting antibody. Other parameters such as composition of the buffer solution (20 mM histidine buffer), antibody concentration (16.7 mg/mL) and concentration of DMSO in solution (7%) were kept constant. The centre point for each parameter was pH6.5, 20° C. and a peptide:antibody ratio of 2.4:1. The low levels tested were pH5.5, 5° C. and a ratio of 1.8, and the high levels were pH7.5, 35° C. and a ratio of 3.
Several experiments whose variable values were at the center-point of all the parameter ranges were selected to provide information on possible non-linear effects. The protocol for these experiments was briefly as follows: Peptide 3b (25 mg) was placed in a 20 mL vial equipped with a magnetic stir bar. The solid was dissolved in DMSO (2.1 mL). Histidine buffer (20 mM, pH 6.5, 2.1 mL) was added to the solution. […] The reaction was monitored for completion by SEC and HIC chromatography methods. […] The in-situ yield of 5 and time of reaction completion (hours) were evaluated by HIC and SEC chromatographic methods. […]

[3] = Storage stability of activated esters of acid 6 at room temperature; conditions: solid, in contact with air
From the text: This cyclic byproduct became the major constituent of the isolated solid after only a few days at RT. Since this side-reaction was envisioned to become even more problematic on scale due to the longer timelines for processing and isolation, a search for an alternative activating group for acid 6 was undertaken.

- Solubility in propylene glycol [1]: very low solubility
- Solubility in solvents other than DMSO [1]: limited solubility
- solubility ([1]; Solubility in DMSO): ≥ 100 mg/mL
- Degradation rate [2]: occurs at a faster rate
Compound: CSCC[C@H](NC(=O)[C@H](Cc1ccccc1)NC(=O)[C@H](CCC(N)=O)NC(=O)[C@H](CC(=O)O)NC(=O)[C@H](Cc1ccc(O)cc1)NC(=O)[C@H](CC(C)C)NC(=O)[C@@H](NC(=O)[C@H](CCCCNC(=O)COCC(=O)Nc1ccc(CCC(=O)N2CCC2=O)cc1)NC(=O)[C@H](CC(=O)O)NC(=O)[C@H](CCCCNC(C)=O)NC(=O)[C@H](CCC(=O)O)NC(=O)[C@H](CC(=O)O)NC(=O)[C@H](CC(C)C)NC(=O)[C@@H]1CCCN1C(=O)[C@H](CCC(N)=O)NC(=O)[C@H](Cc1ccc(O)cc1)NC(=O)[C@H](CCCCNC(C)=O)NC(=O)[C@H](CCC(N)=O)NC(C)=O)C(C)O)C(=O)N[C@@H](CC(C)C)C(=O)N[C@@H](CCC(N)=O)C(=O)N[C@@H](CCC(N)=O)C(=O)NCC(N)=O (stereo partly drawn) [3b]

Compound: CC(=O)NCCCC[C@H](N)C(=O)O [compound 2]
- solubility ([1]; MeCN or MeOH): low solubility

Compound: O=C(COCC(=O)ON1C(=O)CCC1=O)Nc1ccc(CCC(=O)N2CCC2=O)cc1 [compound 8]
- Storage stability [3]: increasing amounts of the second component were noticed after the solid had been set aside for only a few hours
